The source of these data is PMC2997425, “Acetazolamide-based fungal chitinase inhibitors” (Bioorganic & Medicinal Chemistry, 2010).

Where a name gives a salt, the structure may show the parent alone. Read-outs that look alike come from different tables or passages of the source.

The target of data set [1] is AfChiA1 (Aspergillus fumigatus, UniProt Q873Y0). Nature of the data set: biochemical. The following applies: for inhibition at 1000 µM: read-out: % inhibition at 1 mM. The data set is classed as biochemical.
Sequence of AfChiA1 (Q873Y0 29-335): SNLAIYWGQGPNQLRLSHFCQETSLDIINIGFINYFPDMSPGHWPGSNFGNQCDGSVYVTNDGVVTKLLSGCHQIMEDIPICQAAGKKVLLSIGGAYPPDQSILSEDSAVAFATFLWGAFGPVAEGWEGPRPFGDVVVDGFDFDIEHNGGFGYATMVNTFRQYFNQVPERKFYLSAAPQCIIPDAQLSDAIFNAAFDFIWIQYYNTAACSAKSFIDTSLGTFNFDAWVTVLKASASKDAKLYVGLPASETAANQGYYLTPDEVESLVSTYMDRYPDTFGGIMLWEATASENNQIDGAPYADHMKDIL
Data set [2] addresses hCHT (human chitinase) (Homo sapiens, UniProt Q13231). Description: hCHT (human chitinase) inhibition. The format is biochemical.
Data set [3] deals with hevamine. Also noted: method as in PMID 10922481. The following applies: read-out: Ki against hevamine; cited from earlier work.
The mark [4] stands for this setting: human chitinase, read-out: hCHT IC50.
Where [5] appears, read: Table 3, 4-parameter logistic fit.

Sequence of hCHT (human chitinase) (Q13231 22-466): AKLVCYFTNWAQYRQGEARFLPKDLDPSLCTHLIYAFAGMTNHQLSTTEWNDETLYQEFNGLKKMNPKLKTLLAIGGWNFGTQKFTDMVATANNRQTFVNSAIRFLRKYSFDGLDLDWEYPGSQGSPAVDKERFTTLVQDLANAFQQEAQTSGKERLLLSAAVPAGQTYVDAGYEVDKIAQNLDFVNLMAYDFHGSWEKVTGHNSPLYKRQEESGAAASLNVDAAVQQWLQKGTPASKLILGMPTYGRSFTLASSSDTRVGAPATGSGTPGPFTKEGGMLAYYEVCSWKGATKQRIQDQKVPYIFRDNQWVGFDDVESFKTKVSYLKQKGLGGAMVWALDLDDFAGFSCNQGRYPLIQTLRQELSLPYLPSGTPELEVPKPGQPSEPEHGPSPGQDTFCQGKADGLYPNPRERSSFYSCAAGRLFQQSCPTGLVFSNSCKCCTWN

As for `CC(=O)Nc1nncs1` (as salt: salt) [Compound 7, 5-acetamido-1,3,4-thiadiazole], the melting point (in general, the temperature, or range, at which the solid turns liquid) lay within 276 to 277 °C.
On to `Cn1c(=O)c2[nH]c(Cl)nc2n(C)c1=O` [8-Chloro-theophylline, 8-chlorotheophylline, reference compound], for which the Hill slope (in general, a measure of the steepness of the concentration-response curve) in data set [1] worked out at 1.0. For the same compound, the IC50 (in general, the concentration at which inhibition is half-maximal) in data set [2] (setting [4]) is over 2500 µM.
In turn, `CC(=O)N[C@H]1[C@H](O[C@H]2[C@@H](O)[C@@H](NC(C)=O)[C@H](O[C@H]3[C@H](O)[C@H]4N=C(N(C)C)O[C@H]4[C@@H]3CO)O[C@@H]2CO)O[C@H](CO)[C@@H](O)[C@H]1O` [Allosamidin, reference compound] had a Hill slope in data set [1] (Fig. 1, triplicate, four-parameter logistic fit) of 0.9. Further, in data set [3], the Ki (in general, the dissociation constant of the complex between target and ligand, obtained from inhibition or displacement) is 3.1 µM.
For the compound `CC(=O)Nc1nnc(S(N)(=O)=O)s1` [Compound 1, acetazolamide], in data set [2] (setting [4]), the IC50 is over 1000 µM.
`CCC(=O)Nc1nnc(S(N)(=O)=O)s1` [Compound 2, 5-propylamido-2-sulfamoyl-1,3,4-thiadiazole]: in data set [1], the Hill slope is recorded as 0.71, the “inhibitory activity against AfChiA1 (in words)” value (“inhibitory activity” below) was “reduction in activity” and the inhibition (commonly the share of the control response that was lost under treatment) at 1000 µM worked out at 76%.
The compound `NS(=O)(=O)c1nnc(NC(=O)c2ccccc2)s1` [Compound 5, 5-benzylamido-2-sulfamoyl-1,3,4-thiadiazole] registered a Hill slope in data set [1] (setting [5]) of 0.5. Further, the inhibition at 1000 µM in data set [1] was determined as 51%.
As for `Nc1nnc(S(N)(=O)=O)s1` [Compound 6, 5-amino-2-sulfamoyl-1,3,4-thiadiazole monohydrochloride], the “inhibitory activity” value in data set [1] was “abolishes inhibitory activity”.
On the same count and under the same terms, for `CC(=O)Nc1nncs1` [Compound 7, 5-acetamido-1,3,4-thiadiazole] the value was “abrogate activity”; for `CC(=O)Nc1nnc(C)s1` [Compound 8], “abrogate activity”.
Compound `CC(=O)Nc1nnc(S)s1` [Compound 9, 5-Acetamido-2-thiol-1,3,4-thiadiazole] gave a Hill slope in data set [1] (setting [5]) of 1.1.
On the same count and under the same terms, with `CC(=O)Nc1nnc(-c2ccccc2)s1` [Compound 10] the figure was 0.5; with `CC(=O)Nc1nnc(C(F)(F)F)s1` [Compound 11], 1.1; with `CC(=O)Nc1nnc(Br)s1` [Compound 12], 0.7.
With `COc1cccc(CSc2nnc(NC(C)=O)s2)c1` [Compound 14], the inhibition at 1000 µM in data set [1] came out at 38%.
In the case of `O=C(Nc1nnc(-c2ccccc2)s1)C(F)(F)F` [Compound 15], in data set [1], the Hill slope stood at 1.2 and the inhibition at 1000 µM was 85%.
Regarding `O=C(Nc1nnc(N2CCN(c3cccc(Cl)c3)CC2)s1)C(F)(F)F` [Compound 17], the inhibition at 1000 µM in data set [1] is 30%.
For the compound `CC(C)Cc1nnc(NC(=O)CCl)s1` [Compound 20], the “inhibitory activity” value in data set [1] is on record as “reduction in activity”.
On the same count and under the same terms, for `O=C(CCl)Nc1nnc(C(F)(F)F)s1` [Compound 21] the value was “reduction in activity”.
Regarding `c1coc(CNc2ncnc3[nH]cnc23)c1` [Kinetin, reference compound], in data set [1], the “inhibitory activity” value is recorded as “failed to show any discernable effect”. The compound also had a concentration for half-maximal inhibition (IC50) in data set [2] of over 1000 µM.
